Reference: patent US8598202B2, “Aryl-hydroxyethylamino-pyrimidines and triazines as modulators of fatty acid amide hydrolase” (Janssen Pharmaceutica NV, priority 2008, dated 2013)
Counter-ions that a name gives are not always drawn.

Legend:
Rat FAAH-1 = molecular target: T1, Rat FAAH-1 (Rattus norvegicus, UniProt P97612); assay: Assay Method 2: rat FAAH-1 assay, 3H-anandamide hydrolysis in homogenate of SK-N-MC cells transfected with rat FAAH
T1 sequence (P97612 1-579): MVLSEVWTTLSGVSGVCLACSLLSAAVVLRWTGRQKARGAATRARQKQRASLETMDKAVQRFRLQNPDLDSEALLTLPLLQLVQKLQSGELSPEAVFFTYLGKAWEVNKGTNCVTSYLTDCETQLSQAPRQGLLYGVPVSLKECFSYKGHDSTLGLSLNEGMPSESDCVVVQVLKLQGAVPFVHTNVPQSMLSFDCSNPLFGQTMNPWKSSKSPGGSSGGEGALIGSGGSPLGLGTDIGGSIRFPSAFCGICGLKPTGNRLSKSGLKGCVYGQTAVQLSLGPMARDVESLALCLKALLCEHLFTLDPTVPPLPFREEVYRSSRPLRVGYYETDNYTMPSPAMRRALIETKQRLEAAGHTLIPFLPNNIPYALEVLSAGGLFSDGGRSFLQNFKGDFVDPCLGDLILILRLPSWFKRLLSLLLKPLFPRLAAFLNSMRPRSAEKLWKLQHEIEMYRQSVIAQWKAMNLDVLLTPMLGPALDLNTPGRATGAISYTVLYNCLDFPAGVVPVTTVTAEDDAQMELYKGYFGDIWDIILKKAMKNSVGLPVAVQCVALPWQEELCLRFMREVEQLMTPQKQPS

FAAH = molecular target: T2, FAAH (Homo sapiens, UniProt O00519); assay: Assay Method 1: FAAH assay, 3H-anandamide hydrolysis in homogenate of T84 cells or SK-N-MC cells transfected with human FAAH
T2 sequence (O00519 1-579): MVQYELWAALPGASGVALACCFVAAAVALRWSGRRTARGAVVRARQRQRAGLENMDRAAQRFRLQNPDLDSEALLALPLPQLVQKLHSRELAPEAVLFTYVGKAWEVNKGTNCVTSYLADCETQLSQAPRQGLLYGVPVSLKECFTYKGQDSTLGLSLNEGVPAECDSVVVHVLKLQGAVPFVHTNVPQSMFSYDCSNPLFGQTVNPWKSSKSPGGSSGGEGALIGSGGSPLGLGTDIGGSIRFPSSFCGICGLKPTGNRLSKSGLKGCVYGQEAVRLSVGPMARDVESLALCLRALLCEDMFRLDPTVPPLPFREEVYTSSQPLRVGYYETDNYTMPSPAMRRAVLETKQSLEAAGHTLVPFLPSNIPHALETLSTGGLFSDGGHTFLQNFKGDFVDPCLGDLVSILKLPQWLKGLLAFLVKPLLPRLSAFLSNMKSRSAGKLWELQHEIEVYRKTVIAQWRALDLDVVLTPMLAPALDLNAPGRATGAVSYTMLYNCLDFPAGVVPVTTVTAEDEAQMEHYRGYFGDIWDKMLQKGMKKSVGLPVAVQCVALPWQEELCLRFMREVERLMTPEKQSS

OC(CNc1cc(-c2ccc(OC(F)(F)F)cc2)ncn1)c1cc(Cl)cc(Cl)c1 (stereo not shown) [Example 126, 1-(3,5-Dichlorophenyl)-2-[(6-{4-[(trifluoromethyl)oxy]phenyl}-pyrimidin-4-yl)amino]ethanol]
IC50 (Rat FAAH-1): 1000 nM
IC50 (FAAH): 1200 nM

OC(CNc1cc(-c2ccc(OC(F)(F)F)cc2)ncn1)c1ccc2c(c1)OCO2 (stereo not shown) [Example 127, 1-(1,3-Benzodioxol-5-yl)-2-[(6-{4-[(trifluoromethyl)oxy]phenyl}-pyrimidin-4-yl)amino]ethanol]
IC50 (Rat FAAH-1): 112 nM
IC50 (FAAH): 122 nM

CC(O)c1ccc(-c2cc(NC[C@H](O)c3ccccc3)ncn2)cc1F (stereo partly drawn) [Example 129, (1R)-2-({6-[3-Fluoro-4-(1-hydroxyethyl)phenyl]pyrimidin-4-yl}amino)-1-phenylethanol trifluoroacetic acid salt]
IC50 (Rat FAAH-1): 120 nM
IC50 (FAAH): 16 nM

OC(CNc1cc(-c2ccc(C(F)(F)F)c(Cl)c2)ncn1)c1cccc(OC(F)(F)F)c1 (stereo not shown) [Example 130, 2-({6-[3-Chloro-4-(trifluoromethyl)phenyl]pyrimidin-4-yl}amino)-1-[3-(trifluoromethoxy)phenyl]ethanol trifluoroacetic acid salt]
IC50 (Rat FAAH-1): 15 nM
IC50 (FAAH): 120 nM

OC(CNc1cc(-c2ccc(C(F)(F)F)c(Cl)c2)ncn1)c1ccc(Cl)c(F)c1 (stereo not shown) [Example 133, 1-(4-Chloro-3-fluoro-Phenyl)-2-[6-(3-chloro-4-trifluoromethyl-phenyl)-pyrimidin-4-ylamino]-ethanol trifluoroacetic acid salt]
IC50 (Rat FAAH-1): 15 nM
IC50 (FAAH): 30 nM

OC(CNc1cc(-c2ccc(C(F)(F)F)c(Cl)c2)ncn1)c1ccc(F)c(Cl)c1 (stereo not shown) [Example 134, 1-(3-Chloro-4-fluorophenyl)-2-({6-[3-chloro-4-(trifluoromethyl)phenyl]pyrimidin-4-yl}amino)ethanol trifluoroacetic acid salt]
IC50 (Rat FAAH-1): 19 nM
IC50 (FAAH): 27 nM

OC(CNc1cc(-c2ccc(C(F)(F)F)c(Cl)c2)ncn1)c1cccc(C(F)(F)F)c1 (stereo not shown) [Example 135, 2-({6-[3-Chloro-4-(trifluoromethyl)phenyl]pyrimidin-4-yl}amino)-1-[3-(trifluoromethyl)phenyl]ethanol trifluoroacetic acid salt]
IC50 (Rat FAAH-1): 16 nM
IC50 (FAAH): 100 nM

O[C@@H](CNc1cc(-c2ccc(Cl)c(Cl)c2)nc(C2CC2)n1)c1ccccc1 [Example 136, (1R)-2-{[2-Cyclopropyl-6-(3,4-dichlorophenyl)pyrimidin-4-yl]amino}-1-phenylethanol]
IC50 (Rat FAAH-1): 340 nM
IC50 (FAAH): 84 nM

CC(C)c1nc(NC[C@H](O)c2ccccc2)cc(-c2ccc(Cl)c(Cl)c2)n1 [Example 137, (1R)-2-{[6-(3,4-Dichlorophenyl)-2-(1-methylethyl)pyrimidin-4-yl]amino}-1-phenylethanol]
IC50 (Rat FAAH-1): 5000 nM
IC50 (FAAH): 920 nM

Cc1n[nH]c2cc(-c3cc(NC[C@H](O)c4ccccc4)ncn3)ccc12 [Example 140, (1R)-2-{[6-(3-Methyl-1H-indazol-6-yl)pyrimidin-4-yl]amino}-1-phenylethanol trifluoroacetic acid salt]
IC50 (Rat FAAH-1): 265 nM
IC50 (FAAH): 127 nM

CNc1nc(NC[C@H](O)c2ccccc2)cc(-c2ccc(C(F)(F)F)c(Cl)c2)n1 [Example 141, (1R)-2-({6-[3-Chloro-4-(trifluoromethyl)phenyl]-2-(methylamino)pyrimidin-4-yl}amino)-1-phenylethanol trifluoroacetic acid salt]
IC50 (Rat FAAH-1): 5 nM
IC50 (FAAH): 12 nM

O[C@@H](CNc1cc(-c2ccc(I)cc2)ncn1)c1ccccc1 [Example 142, (1R)-2-{[6-(4-Iodophenyl)pyrimidin-4-yl]amino}-1-phenylethanol]
IC50 (Rat FAAH-1): 60 nM
IC50 (FAAH): 9 nM

O[C@H](CNc1cc(-c2ccc(C(F)(F)F)c(Cl)c2)ncn1)c1ccc(Cl)c(F)c1 [Example 145, (1S)-1-(4-Chloro-3-fluoro-phenyl)-2-[6-(3-chloro-4-trifluoromethyl-phenyl)-pyrimidin-4-ylamino]-ethanol]
IC50 (Rat FAAH-1): 2000 nM
IC50 (FAAH): 7000 nM

O[C@@H](CNc1cc(-c2ccc(C(F)(F)F)c(Cl)c2)ncn1)c1ccc(Cl)c(F)c1 [Example 146, (1R)-1-(4-Chloro-3-fluoro-phenyl)-2-[6-(3-chloro-4-trifluoromethyl-Phenyl)-pyrimidin-4-ylamino]-ethanol]
IC50 (Rat FAAH-1): 4 nM
IC50 (FAAH): 26 nM

C[C@@H](Nc1cc(-c2ccc(OC(F)(F)F)cc2)ncn1)[C@@H](O)c1ccccc1 [Example 150, (1S,2R)-1-Phenyl-2-[(6-{4-[(trifluoromethyl)oxy]phenyl}pyrimidin-4-yl)amino]propan-1-ol]
IC50 (Rat FAAH-1): 5000 nM
IC50 (FAAH): 1500 nM

O[C@@H](CNc1cc(-c2ccc(C(F)(F)F)cc2C(F)(F)F)ncn1)c1ccccc1 [Example 152, (1R)-2-({6-[2,4-Bis(trifluoromethyl)phenyl]pyrimidin-4-yl}amino)-1-phenylethanol trifluoroacetic acid salt]
IC50 (Rat FAAH-1): > 10000 nM
IC50 (FAAH): 4000 nM

Cc1nc(NC[C@H](O)c2ccccc2)cc(-c2ccc(Cl)c(Cl)c2)n1 [Example 155, (1R)-2-{[6-(3,4-Dichlorophenyl)-2-methylpyrimidin-4-yl]amino}-1-phenylethanol]
IC50 (Rat FAAH-1): 270 nM
IC50 (FAAH): 60 nM

NCCNc1nc(NC[C@H](O)c2ccccc2)cc(-c2ccc(C(F)(F)F)c(Cl)c2)n1 [Example 157, (1R)-2-({2-[(2-Aminoethyl)amino]-6-[3-chloro-4-(trifluoromethyl)phenyl]pyrimidin-4-yl}amino)-1-phenylethanol trifluoroacetic acid salt]
IC50 (Rat FAAH-1): 4000 nM
IC50 (FAAH): 2000 nM

CN(C)CCNc1nc(NC[C@H](O)c2ccccc2)cc(-c2ccc(C(F)(F)F)c(Cl)c2)n1 [Example 158, (1R)-2-[(6-[3-Chloro-4-(trifluoromethyl)phenyl]-2-{[2-(dimethylamino)ethyl]amino}pyrimidin-4-yl)amino]-1-phenylethanol trifluoroacetic acid salt]
IC50 (Rat FAAH-1): 110 nM
IC50 (FAAH): 3460 nM

CCNc1nc(NC[C@H](O)c2ccccc2)cc(-c2ccc(C(F)(F)F)c(Cl)c2)n1 [Example 159, (1R)-2-({6-[3-Chloro-4-(trifluoromethyl)phenyl]-2-(ethylamino)pyrimidin-4-yl}amino)-1-phenylethanol trifluoroacetic acid salt]
IC50 (Rat FAAH-1): 7 nM
IC50 (FAAH): 20 nM

OCCNc1nc(NC[C@H](O)c2ccccc2)cc(-c2ccc(C(F)(F)F)c(Cl)c2)n1 [Example 160, (1R)-2-({6-[3-Chloro-4-(trifluoromethyl)phenyl]-2-[(2-hydroxyethyl)amino]pyrimidin-4-yl}amino)-1-phenylethanol trifluoroacetic acid salt]
IC50 (Rat FAAH-1): 290 nM
IC50 (FAAH): 150 nM

O[C@@H](CNc1cc(-c2ccc(C(F)(F)F)c(Cl)c2)nc(NC2CC2)n1)c1ccccc1 [Example 162, (1R)-2-({6-[3-Chloro-4-(trifluoromethyl)phenyl]-2-(cyclopropylamino)pyrimidin-4-yl}amino)-1-phenylethanol trifluoroacetic acid salt]
IC50 (Rat FAAH-1): 130 nM
IC50 (FAAH): 570 nM

CNCCNc1nc(NC[C@H](O)c2ccccc2)cc(-c2ccc(C(F)(F)F)c(Cl)c2)n1 [Example 163, (1R)-2-[(6-[3-Chloro-4-(trifluoromethyl)phenyl]-2-{[2-(methylamino)ethyl]amino}pyrimidin-4-yl)amino]-1-phenylethanol hydrochloride salt]
IC50 (Rat FAAH-1): 2000 nM
IC50 (FAAH): 2000 nM

COc1nc(NC[C@H](O)c2ccccc2)cc(-c2ccc(C(F)(F)F)c(Cl)c2)n1 [Example 164, (1R)-2-({6-[3-Chloro-4-(trifluoromethyl)phenyl]-2-methoxypyrimidin-4-yl}amino)-1-phenylethanol trifluoroacetic acid salt]
IC50 (Rat FAAH-1): 14 nM
IC50 (FAAH): 15 nM

Cc1noc2cc(-c3cc(NC[C@H](O)c4ccccc4)ncn3)ccc12 [Example 165, (1R)-2-{[6-(3-Methyl-1,2-benzisoxazol-6-yl)pyrimidin-4-yl]amino}-1-phenylethanol]
IC50 (Rat FAAH-1): 19 nM
IC50 (FAAH): 4 nM

CSc1ccc(C(O)CNc2cc(-c3ccc(C(F)(F)F)c(Cl)c3)ncn2)cc1 (stereo not shown) [Example 167, 2-({6-[3-Chloro-4-(trifluoromethyl)phenyl]pyrimidin-4-yl}amino)-1-[4-(methylsulfanyl)phenyl]ethanol]
IC50 (Rat FAAH-1): 20 nM
IC50 (FAAH): 60 nM
